PMC8945229, “Development and Biological Characterization of a Novel Selective TrkA Agonist with Neuroprotective Properties against Amyloid Toxicity” (Biomedicines, 2022)

Key:
[1] = biological target: T1, TrkA (Rattus norvegicus, UniProt P35739); test: TrkA phosphorylation in PC12 cells (IP with TrkA antibody, Western blot against phosphorylated Tyrosine); type: cell-based
T1 construct: we used PC12 cells, a cell line that express TrkA and p75^NTR; host or cells: PC12
Procedure: For immunoprecipitation experiments PC12 or HEK293T, cells were used when at 70–80% confluent. […] Cells were then lysed in Pierce™ IP Lysis Buffer (87788, Thermo Fischer Scientific, Waltham, MA, USA) containing proteases (539138, Calbiochem, Darmstadt, Germany) and phosphatase inhibitors (524629, Calbiochem, Darmstadt, Germany). Lysates were then immunoprecipitated overnight at 4 °C with TrkA antibody (1:100, 06-574, Sigma-Aldrich, St. Louis, MO, USA) (Table S1) or p75^NTR antibody (1:100, ab6172, Abcam plc., Cambridge, UK) followed by 4 h incubation with protein G-plus agarose beads (sc-2002, Santa Cruz Biotechnology, Inc., Dallas, TX, USA). Beads were then collected, washed 3X with lysis buffer, resuspended in SDS loading buffer and subjected to Western blot against phosphorylated Tyrosine (1:1000, BAM1676, R&D Systems, Inc., Minneapolis, MN, USA) or Traf6 antibody (1:2000, ab33915, Abcam, plc., Cambridge, UK). Whole cell lysates were subjected to Western blot against TrkA (1:1000, 06-574, Sigma-Aldrich, St. Louis, MO, USA), phosphorylated TrkB (1:1000, ABN1381, Sigma-Aldrich, St. Louis, MO, USA), phosphorylated TrkC (1:1000, STJ90960, St John’s Laboratory, Ltd., London, UK), TrkB (1:1000, 07-225-I, Sigma-Aldrich, St. Louis, MO, USA), TrkC (1:1000, C44H5, Cell Signaling Technology, Danvers, MA, USA), p75 (1:1000, 839701, Biolegend, Inc., San Diego, CA, USA), Traf6 (1:2000, ab33915, Abcam, plc., Cambridge, UK) phosphorylated Akt (1:1000, 9721S, Cell Signaling Technology, Danvers, MA, USA), phosphorylated Erk1/2 (1:1000, 9101S, Cell Signaling Technology, Danvers, MA, USA), total Akt (1:1000, 4691S Cell Signaling Technology, Danvers, MA, USA) and total Erk1/2 (1:1000, 4695S, Cell Signaling Technology, Danvers, MA, USA).

[2] = tested on: Primary hippocampal neurons; test: TUNEL assay in primary hippocampal neurons treated with oligomeric Aβ; type: cell-based, mouse; details: 5 μM oligomeric Aβ, 500 nM every 24 h, 48 h
Procedure: Primary hippocampal neurons were isolated from E17.5 mouse embryos (C57BL/6J, The Jackson Laboratory, Bar Harbor, ME, USA) as previously described and cultured with Neurobasal medium containing 2% B27, 1X GlutaMax, 10 mM HEPES and 1% PenStrep. Cells were maintained in a humified incubator at 37 °C and 5% CO2. For TUNEL assay, cells were left in culture for 16–18 days and then treated with 5 μM oligomeric Aβ along with ENT-A013 (500 nM, every 24 h) for 48 h. Cells were then fixed with 4% PFA and labelled with TUNEL (F. Hoffmann–La Roche Ltd., Basel, Switzerland, cat# 11684795910) following the manufacturer’s protocol. Subsequently, cells were immunostained against Tuj1 and imaged with confocal microscopy. For synaptic plasticity assay, cells were left in culture for 16–18 days and then treated with 5 μM oligomeric Aβ along with ENT-A013 (500 nM) for 4 h. Cells were then fixed with 4% PFA and immunostained against Tuj1 and Synaptophysin (1:1000, PA1-1043, Invitrogen, Waltham, MA, USA), anti-mouse Alexa fluor 488 (1:1000, A-11029, Invitrogen, Waltham, MA, USA) and anti-rabbit Alexa fluor 546 (1:1000, A10040, Invitrogen, Waltham, MA, USA). Images were acquired using confocal microscopy and the total area of synaptophysin positive puncta was measured and normalized to Tuj1 total area. […]

[3] = tested on: hippocampal brain slices; test: LTP electrophysiology in hippocampal brain slices treated with oligomeric Aβ; parameters: species or system mouse; details: oligomeric Aβ 5 μM, 500 nM, 3–5 h, vs slices treated only with Aβ
Description: C57BL/6J mice were euthanized under halothane anesthesia and the brain was quickly dissected and placed in ice-cold oxygenated artificial cerebrospinal fluid (aCSF; 95% O2/5% CO2) containing (in mM): 125 NaCl, 3.5 KCl, 26 NaHCO3, 1 MgCl2 and 10 glucose (pH = 7.4, 315 mOsm/L). The brain was then placed onto the stage of a vibratome (Leica, VT1000S, Leica Biosystems GmbH, Wetzlar, Germany) and transverse slices containing the hippocampus were obtained. […] Field excitatory post-synaptic potentials (fEPSP) were amplified using an EXT-02F amplifier ([…]), digitized with ITC-18 (HEKA Elektronik GmbH, Reutlingern, Germany) and recorded in a computer running Windows 10 with IgorPro software (Wavemetrics Inc., Portland, OR, USA). […] The fEPSP amplitude was calculated from the minimum voltage value of the synaptic response (3–5 ms following stimulation) compared to the baseline voltage prior to stimulation. fEPSP recordings were acquired every 90″ for 10′ before TBS and continued for approximately 50′ following LTP induction. Recorded traces were analyzed using a custom-made script in the IgorPro software (Wavemetrics Inc., Portland, OR, USA).

T1 sequence (P35739 33-799): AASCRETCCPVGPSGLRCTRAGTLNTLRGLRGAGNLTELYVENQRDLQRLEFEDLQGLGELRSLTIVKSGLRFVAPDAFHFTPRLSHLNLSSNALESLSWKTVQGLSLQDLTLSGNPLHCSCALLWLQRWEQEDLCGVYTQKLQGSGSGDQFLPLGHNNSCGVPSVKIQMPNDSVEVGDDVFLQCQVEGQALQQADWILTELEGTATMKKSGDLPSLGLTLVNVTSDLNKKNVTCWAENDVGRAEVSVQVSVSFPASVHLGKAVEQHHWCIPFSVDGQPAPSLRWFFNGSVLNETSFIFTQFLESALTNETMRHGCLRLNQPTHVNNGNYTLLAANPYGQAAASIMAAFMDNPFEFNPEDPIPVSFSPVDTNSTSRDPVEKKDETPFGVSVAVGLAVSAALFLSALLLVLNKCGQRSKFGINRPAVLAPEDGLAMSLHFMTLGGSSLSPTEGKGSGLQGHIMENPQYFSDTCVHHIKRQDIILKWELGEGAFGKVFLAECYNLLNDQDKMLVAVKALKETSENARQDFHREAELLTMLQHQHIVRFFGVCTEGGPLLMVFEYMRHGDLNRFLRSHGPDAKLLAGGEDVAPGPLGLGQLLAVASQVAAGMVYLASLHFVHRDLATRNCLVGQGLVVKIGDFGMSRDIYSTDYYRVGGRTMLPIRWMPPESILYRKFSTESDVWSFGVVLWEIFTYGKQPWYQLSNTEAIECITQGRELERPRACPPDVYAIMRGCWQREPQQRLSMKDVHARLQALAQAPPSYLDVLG

`CC12CCC(O)CC1=CCC1C2CCC2(C)C1CCC21CC1C=CBr` [ENT-A013, (2′R,3S,17S)-2′-(2-Bromovinyl)-5-Androstene-17,1′-Cyclopropan-3-ol] was tested, and the “time TrkA phosphorylation is sustained after treatment” value ([1]; PC12 cells, 10, 30 or 60′ treatment) was “up to 1 hr”, the TrkA phosphorylation ([1]; PC12 cells, compound 500 nM or NGF 100 ng/mL, 30′) was 2.05 ± 0.21 % of control FC and the “apoptosis (TUNEL)” value [2] was 29.8% ± 2.5%. For the same molecule, the “synaptic potentiation after TBS (in words)” value [3] was “significantly increased synaptic potentiation”.
